Patent US20250144131A1, “POLYSACCHARIDE COMPOUND WITH A DEFINED MOLECULAR STRUCTURE FOR THE TREATMENT OF PULMONARY FIBROSIS” (SHENZHEN YANDAI INVESTMENT CO., LTD, priority 2023, published 2025)
Marks after values point to notes of the source that are not given here.

What was measured:
[1] = Mortality and body weight of LLC-bearing mice
Protocol: (§1) LLC cells in logarithmic growth phase at 1×10^7/mL were inoculated at 0.2 mL into the right axilla of 10 purchased normal male C57 mice. Tumor growth was monitored, and tumor-bearing mice were prepared. Once the tumor volume in tumor-bearing mice exceeded 200 mm^3, the tumor tissue was aseptically harvested to prepare a tissue cell suspension. This was mixed at a 1:1 (V:V) ratio with culture medium to create a tumor tissue homogenate. This homogenate was injected into the right axilla of 60 male C57 mice at 0.2 mL per mouse. When the tumor volume in these tumor-bearing mice exceeded 100 mm^3, mice with well-grown tumors without ulceration were selected and randomized into groups based on tumor volume as follows: model control group, cisplatin group (4 mg/kg), Kanglaite soft capsule group (1,404 mg/kg), cisplatin+Kanglaite soft capsule group (4+1,404 mg/kg), cisplatin+GLP-4 low-dose group (4+130 mg/kg), and cisplatin+GLP-4 high-dose group (4+1,170 mg/kg), with 8 mice per group. Additionally, 8 mice were selected as a normal control group. The cisplatin group received intraperitoneal injections of cisplatin, and the other groups were administered their respective drug solutions by gavage (20 mL/kg) or intraperitoneal injection (10 mL/kg), once daily for 27 consecutive days. After the last dose, blood was collected from the orbital plexus to test blood WBC, RBC, liver and kidney function indicators (ALT, AST, BUN, CRE), and CD3^+, CD4^+, and CD8^+ levels. Bone marrow smears were examined, and spleens, thymuses, and tumors were weighed. Histopathological examinations were conducted on the tumor, spleen, stomach, and kidneys.
Evaluation of quality of life and survival time in animals: Throughout the experimental process, detailed records were kept for each group of animals regarding weight, mortality, mental state, fur color, smoothness of fur, and fecal form, including incidences of diarrhea (if any).

[2] = design: species or system C57 mice; settings: mouse, in vivo, 130 mg/kg
Protocol: Spleen and thymus organ coefficients: After the last dose, spleen, thymus, and tumor weights are measured, and organ coefficients are calculated. organ coefficient (%)=organ weight/fasting body weight×100%.

[3] = system: CD4+ and CD8+ lymphocyte subtypes; assay: Blood CD3+/CD4+ and CD3+/CD8+ by flow cytometry in LLC-bearing mice; format: in vivo, C57 mice; settings: blood after last dose, cisplatin 4, Kanglaite 1404, GLP-4 low-dose 130 mg/kg
Protocol: as §1, with “After the last dose, blood was collected from the orbital plexus to test blood WBC, RBC, liver and kidney function indicators (ALT, AST, BUN, CRE), and CD3^+, CD4^+, and CD8^+ levels. Bone marrow smears were examined, and spleens, thymuses, and tumors were weighed. Histopathological examinations were conducted on the tumor, spleen, stomach, and kidneys.” left out

LLC tumors = assay: Histopathology (H&E) of tumor, spleen, stomach and kidney in LLC-bearing mice; format: in vivo, C57 mice; settings: cisplatin 4, Kanglaite 1404, GLP-4 low-dose 130 mg/kg
From the text: Histopathology examination: After the last dose, tissues from tumors, spleens, stomachs, and kidneys were collected for H&E staining to observe histopathological changes.

[4] = system: H22 hepatoma solid tumors; assay: Antitumor effect in H22-bearing mice (tumor volume, relative tumor growth inhibition rate, tumor index, tumor growth inhibition rate); format: in vivo, C57 mice
Protocol: Longest and shortest diameters of tumors were measured every three days to calculate tumor volume, and mouse weights were recorded every three days. At the end of the experiment, tumors, spleens, and thymuses were harvested and weighed to calculate tumor, spleen, and thymus indices. […] Where TRTV is the relative tumor volume in the experimental group, and CRTV is the relative tumor volume in the model control group. Relative tumor volume (RTV)=Vt/V0, where Vt is the tumor volume on day t of dosing, and V0 is the tumor volume at the time of grouping. Evaluation criteria: […] Where T represents the average tumor weight in the treatment group, and C represents the average tumor weight in the model control group. Evaluation criteria: […]

[5] = Mortality, survival time and body weight of H22-bearing mice; format: in vivo, C57 mice
Protocol: A homogenate suspension of H22 hepatoma solid tumors was injected subcutaneously under the axilla of 60 healthy male C57 mice to create a solid tumor model. Once all mouse tumors averaged a volume of about 180 mm^3, mice were randomized into groups based on tumor volume and were administered the respective drugs or drug solvents via oral gavage or intraperitoneal injection for 27 consecutive days. Longest and shortest diameters of tumors were measured every three days to calculate tumor volume, and mouse weights were recorded every three days. At the end of the experiment, tumors, spleens, and thymuses were harvested and weighed to calculate tumor, spleen, and thymus indices.

[6] = system: CD4+ and CD8+ lymphocyte subtypes; assay: Blood CD3+/CD4+ and CD3+/CD8+ ratios by flow cytometry in orthotopic H22-bearing mice; format: in vivo, C57 mice; settings: cisplatin 4 mg/kg, Kanglaite soft capsule 1404 mg/kg
Protocol: CD4^+ and CD8^+ content measurement: After the last dose, lymphocyte subtypes CD3^+/CD4^+ and CD3^+/CD8^+ in the blood were measured using flow cytometry.

H22 cells = assay: Necrosis and apoptosis of H22 cells (GLP-4 combined with cisplatin); format: cell-based; design: unit not given here; settings: 48 h, GLP-4 2 mg/mL, cisplatin 5 μg/mL
Protocol: The culture medium was discarded, cells were washed with PBS and digested with 0.125% trypsin. After digestion, the reaction was stopped with medium, and cells were transferred to EP tubes for counting using a cell counter. […] 24 h later, once cells adhered, drugs were added. 48 h after drug administration, cells were digested with trypsin, washed with PBS, and recounted. The corresponding volume of staining solution was added based on cell count, then incubated for 30 min in an incubator. After incubation, cells were chilled to stop staining and maintain viability, followed by imaging using a confocal microscope.
Based on preliminary study results, the dosing concentration for Ganoderma lucidum polysaccharide GLP-4 was set at 2 mg/mL, and for cisplatin (DDP) at 5 μg/mL.

[7] = 8 per group, cisplatin 4, Kanglaite 1404, GLP-4 low-dose 130 mg/kg

N.N.[Cl][Pt][Cl] [Cisplatin, cisplatin]
Number of deaths [1, 7]: 0
Number of surviving animals [1, 7]: 8
Weight ([1]; D1, cisplatin 4, Kanglaite 1404, GLP-4 low-dose 130 mg/kg): 14.1 ± 0.7 g
Weight ([1]; D4, cisplatin 4, Kanglaite 1404, GLP-4 low-dose 130 mg/kg): 14.5 ± 1.1 g
Mortality rate ([1]; cisplatin 4, Kanglaite 1404, GLP-4 low-dose 130 mg/kg): 0%
Spleen coefficient [2]: 0.456 ± 0.102 ^ %
Thymus coefficient [2]: 0.044 ± 0.020 %
CD3+/CD4+ [3]: 0.093 ± 0.025
CD3+/CD8+ [3]: 1.571 ± 0.406
Tumor histopathology (LLC tumors): large areas of necrosis and hemorrhage were visible at the tumor center, with abundant tumor cells
Relative tumor growth inhibition rate (compared to model control group) ([4]; D3, cisplatin 3, GLP-4 low-dose 50 mg/kg): 32.9%
Relative tumor growth inhibition rate (compared to model control group) ([4]; D6, cisplatin 3, GLP-4 low-dose 50 mg/kg): 39.7%
Relative tumor growth inhibition rate (compared to model control group) ([4]; D9, cisplatin 3, GLP-4 low-dose 50 mg/kg, 50 mg/kg): 66.5^+ %
Relative tumor growth inhibition rate (compared to model control group) ([4]; D9, cisplatin 3, GLP-4 low-dose 50 mg/kg, listed as cisplatin, 50 mg/kg): 66.5%
Relative tumor growth inhibition rate (compared to model control group) ([4]; D12, cisplatin 3, GLP-4 low-dose 50 mg/kg, 50 mg/kg): 70.6^+ %
Relative tumor growth inhibition rate (compared to model control group) ([4]; D12, cisplatin 3, GLP-4 low-dose 50 mg/kg, listed as cisplatin, 50 mg/kg): 70.6%
Relative tumor growth inhibition rate (compared to model control group) ([4]; D15, cisplatin 3, GLP-4 low-dose 50 mg/kg, 50 mg/kg): 69.1^+ %
Relative tumor growth inhibition rate (compared to model control group) ([4]; D15, cisplatin 3, GLP-4 low-dose 50 mg/kg, listed as cisplatin, 50 mg/kg): 69.1%
Relative tumor growth inhibition rate (compared to model control group) ([4]; D18, cisplatin 3, GLP-4 low-dose 50 mg/kg, 50 mg/kg): 81.3^+ %
Relative tumor growth inhibition rate (compared to model control group) ([4]; D18, cisplatin 3, GLP-4 low-dose 50 mg/kg, listed as cisplatin, 50 mg/kg): 81.3%
Relative tumor growth inhibition rate (compared to model control group) ([4]; D21, cisplatin 3, GLP-4 low-dose 50 mg/kg, 50 mg/kg): 83.9^+ %
Relative tumor growth inhibition rate (compared to model control group) ([4]; D21, cisplatin 3, GLP-4 low-dose 50 mg/kg, listed as cisplatin, 50 mg/kg): 83.9%
Relative tumor growth inhibition rate (compared to model control group) ([4]; D24, cisplatin 3, GLP-4 low-dose 50 mg/kg, 50 mg/kg): 85.3^+ %
Relative tumor growth inhibition rate (compared to model control group) ([4]; D24, cisplatin 3, GLP-4 low-dose 50 mg/kg, listed as cisplatin, 50 mg/kg): 85.3%
Relative tumor growth inhibition rate (compared to model control group) ([4]; D27, cisplatin 3, GLP-4 low-dose 50 mg/kg, 50 mg/kg): 84.3^+ %
Relative tumor growth inhibition rate (compared to model control group) ([4]; D27, cisplatin 3, GLP-4 low-dose 50 mg/kg, listed as cisplatin, 50 mg/kg): 84.3%
Tumor growth inhibition rate (%) vs. the model control group ([4]; cisplatin group): 88.7%
Tumor index ([4]; cisplatin group): 2.8 ± 2.1^+ %
Tumor growth inhibition rate compared to the model control group ([4]; tumor weight, cisplatin 3, GLP-4 low-dose 50 mg/kg): 88.7%
Number of deaths ([5]; 8 per group, cisplatin 3, GLP-4 low-dose 50 mg/kg): 0
Survival time ([5]; 27 days dosing, cisplatin 3, GLP-4 low-dose 50 mg/kg): 27 ± 0 days
Weight ([5]; D0, cisplatin 3, GLP-4 low-dose 50 mg/kg): 22.8 ± 1^+ g
Weight ([5]; D9, cisplatin 3, GLP-4 low-dose 50 mg/kg): 22.2 ± 0.7^+ g
Weight ([5]; D12, cisplatin 3, GLP-4 low-dose 50 mg/kg): 21.9 ± 0.5^+ g
Weight ([5]; D15, cisplatin 3, GLP-4 low-dose 50 mg/kg): 21.3 ± 1*^+ g
Mortality rate ([5]; cisplatin 3, GLP-4 low-dose 50 mg/kg): 0%
CD3^+/CD4^+ [6]: 4.26 ± 0.04
CD3^+/CD8^+ [6]: 4.21 ± 0.81
Apoptosis rate, Mean ± SD (H22 cells): 10.9 ± 1.6
Necrosis rate, Mean ± SD (H22 cells): 33.7 ± 8.2
Total mortality rate, Mean ± SD (H22 cells): 44.7 ± 9.5
Apoptosis rate (H22 cells; single value 1): 11.3
Necrosis rate (H22 cells; single value 1): 27.3
Total mortality rate (H22 cells; single value 1): 38.7
Apoptosis rate (H22 cells; single value 2): 8.8
Necrosis rate (H22 cells; single value 2): 28.6
Total mortality rate (H22 cells; single value 2): 37.3
Apoptosis rate (H22 cells; single value 3): 12.9
Necrosis rate (H22 cells; single value 3): 45.4
Total mortality rate (H22 cells; single value 3): 58.2
